Measured values reported in patent US20250282785A1, “PYRROLIDINONE DERIVATIVES AS INHIBITORS OF NF KAPPA B INDUCING KINASE” (priority 2022, published 2025).

What was measured:
[1] = target: Recombinant Human NF-Kappab-Inducing Kinase (NIK/MAP3K14) (Homo sapiens, UniProt Q99558); test: Inhibition of auto-phosphorylation of recombinant human NIK/MAP3K14 (AlphaScreen); format: biochemical; conditions: NIK/MAP3K14 auto-phosphorylation, 5 microM ATP, 1 nM enzyme, 2 h at 25° C.; average of values; read-out: Assay 1 IC50
Chain of Recombinant Human NF-Kappab-Inducing Kinase (NIK/MAP3K14) (Q99558 whole entry): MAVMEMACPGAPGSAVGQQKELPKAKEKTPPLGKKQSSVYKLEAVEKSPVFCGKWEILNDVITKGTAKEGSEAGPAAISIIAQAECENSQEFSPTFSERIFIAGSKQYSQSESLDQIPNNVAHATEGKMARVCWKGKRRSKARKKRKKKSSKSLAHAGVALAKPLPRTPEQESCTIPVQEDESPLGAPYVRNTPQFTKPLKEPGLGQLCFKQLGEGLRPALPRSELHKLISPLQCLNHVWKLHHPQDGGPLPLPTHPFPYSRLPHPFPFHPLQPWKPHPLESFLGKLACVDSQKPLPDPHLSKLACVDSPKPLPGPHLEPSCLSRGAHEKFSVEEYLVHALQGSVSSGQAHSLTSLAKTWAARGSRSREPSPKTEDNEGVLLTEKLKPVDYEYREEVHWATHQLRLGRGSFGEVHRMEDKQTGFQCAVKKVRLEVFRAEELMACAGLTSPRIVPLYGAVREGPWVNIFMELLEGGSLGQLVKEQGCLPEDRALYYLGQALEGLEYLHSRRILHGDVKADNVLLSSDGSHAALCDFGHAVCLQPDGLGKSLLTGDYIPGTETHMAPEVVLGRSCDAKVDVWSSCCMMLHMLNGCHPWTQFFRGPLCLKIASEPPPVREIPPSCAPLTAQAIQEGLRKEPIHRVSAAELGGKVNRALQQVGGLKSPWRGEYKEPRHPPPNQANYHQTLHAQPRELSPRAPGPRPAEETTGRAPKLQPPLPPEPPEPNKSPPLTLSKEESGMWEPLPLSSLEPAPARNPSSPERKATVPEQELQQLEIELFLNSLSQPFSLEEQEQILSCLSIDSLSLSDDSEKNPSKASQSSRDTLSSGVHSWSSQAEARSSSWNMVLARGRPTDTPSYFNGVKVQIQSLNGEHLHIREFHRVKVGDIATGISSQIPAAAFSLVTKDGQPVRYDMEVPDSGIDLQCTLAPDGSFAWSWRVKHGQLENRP
How it was run: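 GST-tagged NIK (1 nM) auto-phosphorylation with 5 µM ATP in Tris pH 7.5/MgCl2 buffer, 0.7% DMSO, 2 h at 25 °C. Phospho-IKK Ser176/180 antibody detected by AlphaScreen beads. Signal normalized to full-enzyme and no-ATP controls; IC50 from sigmoidal fit of % inhibition vs log concentration.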

[2] = test system: p-IKKα levels in L363 (NIK translocated multiple myeloma) cells; test: Effect of compounds on p-IKKα levels in L363 cells (AlphaLISA SureFire Ultra); format: cell-based; conditions: Homo sapiens, L-363; L363 cells, BAFF stimulated, MG132, 6 h; average of values; read-out: Assay 2 IC50
How it was run: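 L363 myeloma cells were BAFF-stimulated (250 ng/ml) overnight in DMEM/0.5% BSA, then exposed 6 h at 37° C to compound (11-point 1:3 series, 0.3% DMSO) with BAFF plus 10 uM MG132. p-IKKα (Ser 176/180) was read by AlphaLISA SureFire Ultra in lysates. IC50 came from sigmoidal fits normalized to stimulated and unstimulated controls.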

SMILES	IC50 [1] [nM]	IC50 [2] [nM]
Cc1ccc(-c2cccc(-c3cc([C@]4(O)CCN(C)C4=O)on3)c2)nc1C(N)=O [Example 154, (R)-6-(3-(5-(3-Hydroxy-1-methyl-2-oxopyrrolidin-3-yl)isoxazol-3-yl)phenyl)-3-methylpicolinamide]	< 100	> 501
COc1cc(-c2cc(-c3cc([C@]4(O)C[C@@H](C(F)(F)F)N(C)C4=O)on3)c(F)cc2F)nc2c(N)ncnc12 [Example 115, (3R,5S)-3-(3-(5-(4-Amino-8-methoxypyrido[3,2-d]pyrimidin-6-yl)-2,4-difluorophenyl)isoxazol-5-yl)-3-hydroxy-1-methyl-5-(trifluoromethyl)pyrrolidin-2-one]	> 501	> 501
CN1CC[C@@](O)(c2cc(-c3cccc(-c4cc(C(F)(F)F)cc(C(N)=O)n4)c3)no2)C1=O [Example 91, (R)-6-(3-(5-(3-Hydroxy-1-methyl-2-oxopyrrolidin-3-yl)isoxazol-3-yl)phenyl)-4-(trifluoromethyl)picolinamide]	< 100	100 to 500
CN1CC[C@@](O)(c2cc(-c3cccc(-c4cc5c(o4)CCNC5=O)c3)no2)C1=O [Example 56, (R)-2-(3-(5-(3-hydroxy-1-methyl-2-oxopyrrolidin-3-yl)isoxazol-3-yl)phenyl)-6,7-dihydrofuro[3,2-c]pyridin-4(5H)-one]	> 501	> 501
[2H]c1nc(N)c2nc(-c3cccc(-c4ncc([C@@]5(O)CCN(C)C5=O)o4)c3)ccc2n1 (single isomer, unassigned) [Example 40]	> 501	> 501
CN1CC[C@@](O)(c2cc(-c3cccc(-c4ccc5occc5n4)c3)no2)C1=O [Example 66, (R)-3-(3-(3-(Furo[3,2-b]pyridin-5-yl)phenyl)isoxazol-5-yl)-3-hydroxy-1-methylpyrrolidin-2-one]	> 501	> 501
CN1CC[C@@](O)(c2cc(-c3cccc(-c4ncc(Nc5cnn(C)c5)c(C(N)=O)n4)c3)no2)C1=O [Example 137, (R)-2-(3-(5-(3-Hydroxy-1-methyl-2-oxopyrrolidin-3-yl)isoxazol-3-yl)phenyl)-5-((1-methyl-1H-pyrazol-4-yl)amino)pyrimidine-4-carboxamide]	< 100	< 100
[2H]c1nc(N)c2nc(-c3cccc(-n4cc([C@]5(O)CCN(C)C5=O)nn4)c3)ccc2n1 [Example 35, (R)-3-(1-(3-(4-Aminopyrido[3,2-d]pyrimidin-6-yl-2-d)phenyl)-1H-1,2,3-triazol-4-yl)-3-hydroxy-1-methylpyrrolidin-2-one]	< 100	> 501
Cc1cc(N2CCC[C@@H](c3cc([C@]4(O)CCN(C)C4=O)on3)C2)nc2c(N)ncnc12 (single isomer, unassigned) [Example 199]	< 100	> 501
COc1ccc(-c2cccc(-c3cc([C@]4(O)CCN(C)C4=O)on3)c2)nc1C(N)=O [Example 87, (R)-6-(3-(5-(3-Hydroxy-1-methyl-2-oxopyrrolidin-3-yl)isoxazol-3-yl)phenyl)-3-methoxypicolinamide]	> 501	> 501
COc1ncccc1Nc1sc(-c2cccc(-c3cc([C@]4(O)CCN(C)C4=O)on3)c2)nc1C(N)=O [Example 213, (R)-2-(3-(5-(3-Hydroxy-1-methyl-2-oxopyrrolidin-3-yl)isoxazol-3-yl)phenyl)-5-((2-methoxypyridin-3-yl)amino)thiazole-4-carboxamide]	< 100	< 100
CN1CC[C@@](O)(c2cc(-c3cccc(-c4nc(C(N)=O)c5ccc(F)cc5n4)c3)on2)C1=O [Example 160, (R)-7-Fluoro-2-(3-(3-(3-hydroxy-1-methyl-2-oxopyrrolidin-3-yl)isoxazol-5-yl)phenyl)quinazoline-4-carboxamide]	< 100	> 501
Cc1n[nH]c(C)c1Nc1cnc(-c2cccc(-c3cc([C@]4(O)CCN(C)C4=O)on3)c2)nc1C(N)=O [Example 142, (R)-5-((3,5-Dimethyl-1H-pyrazol-4-yl)amino)-2-(3-(5-(3-hydroxy-1-methyl-2-oxopyrrolidin-3-yl)isoxazol-3-yl)phenyl)pyrimidine-4-carboxamide]	< 100	100 to 500
CN1CC[C@@](O)(c2cc(-c3cccc(-n4nc(C(N)=O)c5cc(C6CC6)ccc54)c3)no2)C1=O [Example 112, (R)-5-Cyclopropyl-1-(3-(5-(3-hydroxy-1-methyl-2-oxopyrrolidin-3-yl)isoxazol-3-yl)phenyl)-1H-indazole-3-carboxamide]	< 100	100 to 500
COc1cc(-c2cc(-c3cc([C@]4(O)C[C@@H](C(F)(F)F)N(C)C4=O)on3)ccc2F)nc2c(N)ncnc12 [Example 116, (3R,5S)-3-(3-(3-(4-amino-8-methoxypyrido[3,2-d]pyrimidin-6-yl)-4-fluorophenyl)isoxazol-5-yl)-3-hydroxy-1-methyl-5-(trifluoromethyl)pyrrolidin-2-one]	< 100	> 501
CN1CC[C@@](O)(c2cc(-c3cccc(-n4nc(C(N)=O)c5cc(-c6ccn(C)n6)ccc54)c3)no2)C1=O [Example 99, (R)-1-(3-(5-(3-Hydroxy-1-methyl-2-oxopyrrolidin-3-yl)isoxazol-3-yl)phenyl)-5-(1-methyl-1H-pyrazol-3-yl)-1H-indazole-3-carboxamide]	< 100	< 100
